In PubChem BioAssay AID256 (DTP/NCI, 2004):
Values joined by “and” are separate entries in the source; they are usually repeats but may differ in a detail not shown here. Equal entries are not always repeated. Inconclusive results and toxic doses are left out. The calls were made as follows: active = survival T/C of 150% or more; inactive = T/C below 125% in these data.

Test system: CD2F1 mice, L1210 leukemia ip, survival T/C
Test: NCI In Vivo Anticancer Drug Screen. Data for tumor model L1210 Leukemia (intraperitoneal) in CD2F1 (CDF1) mice
Conditions: higher = longer survival
Outline: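 Compound-dosed mice with transplantable tumor versus matched vehicle controls; endpoint ratio T/C reported.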

[1] = endpoint: mean survival time, dose: 100.0 mg/kg/injection, schedule: Q01DX001 (ip), vehicle: saline
[2] = endpoint: mean survival time, dose: 100.0 mg/kg/injection, schedule: Q04DX003 (ip), vehicle: saline
[3] = endpoint: mean survival time, dose: 200.0 mg/kg/injection, schedule: Q01DX001 (ip), vehicle: saline
[4] = endpoint: mean survival time, dose: 200.0 mg/kg/injection, schedule: Q04DX003 (ip), vehicle: saline
[5] = endpoint: mean survival time, dose: 400.0 mg/kg/injection, schedule: Q01DX001 (ip), vehicle: saline
[6] = endpoint: mean survival time, dose: 400.0 mg/kg/injection, schedule: Q04DX003 (ip), vehicle: saline
[7] = endpoint: mean survival time, dose: 25.0 mg/kg/injection, schedule: Q04DX003 (ip), vehicle: saline with Tween-80
[8] = endpoint: mean survival time, dose: 100.0 mg/kg/injection, schedule: Q01DX001 (ip), vehicle: saline with Tween-80
[9] = endpoint: mean survival time, dose: 200.0 mg/kg/injection, schedule: Q01DX001 (ip), vehicle: saline with Tween-80
[10] = endpoint: mean survival time, dose: 400.0 mg/kg/injection, schedule: Q01DX001 (ip), vehicle: saline with Tween-80
[11] = endpoint: mean survival time, dose: 100.0 mg/kg/injection, schedule: Q01DX009 (ip), vehicle: saline with Tween-80
[12] = endpoint: mean survival time, dose: 200.0 mg/kg/injection, schedule: Q01DX009 (ip), vehicle: saline with Tween-80
[13] = endpoint: mean survival time, dose: 100.0 mg/kg/injection, schedule: Q01DX009 (ip), vehicle: other
[14] = endpoint: mean survival time, dose: 100.0 mg/kg/injection, schedule: Q04DX003 (ip), vehicle: saline with Tween-80
[15] = endpoint: mean survival time, dose: 200.0 mg/kg/injection, schedule: Q04DX003 (ip), vehicle: saline with Tween-80
[16] = endpoint: mean survival time, dose: 400.0 mg/kg/injection, schedule: Q04DX003 (ip), vehicle: saline with Tween-80
[17] = endpoint: mean survival time, dose: 400.0 mg/kg/injection, schedule: Q01DX009 (ip), vehicle: saline with Tween-80

Measured: T/C

CN(C)c1ccc(C=C(Cl)Cl)cc1
inactive: endpoint: mean survival time, dose: 100.0 mg/kg/injection, schedule: Q04DX002 (ip), vehicle: other 87 % of control | endpoint: mean survival time, dose: 200.0 mg/kg/injection, schedule: Q04DX002 (ip), vehicle: other 91 % of control | endpoint: mean survival time, dose: 400.0 mg/kg/injection, schedule: Q04DX002 (ip), vehicle: other 93 % of control

Cc1cc(C)c(Sc2c3ccccc3cc3ccccc23)c(C)c1
inactive: [1] 91 % of control | [2] 93 % of control | [3] 101 % of control | [4] 87 % of control | [5] 100 % of control | [6] 95 % of control

COc1ccc2[nH]c3c(C)c4cc[n+](C)cc4c(C)c3c2c1
inactive: endpoint: mean survival time, dose: 3.13 mg/kg/injection, schedule: Q01DX009 (ip), vehicle: saline 120 % of control | endpoint: mean survival time, dose: 6.25 mg/kg/injection, schedule: Q01DX009 (ip), vehicle: saline with Tween-80 122 % of control | endpoint: mean survival time, dose: 6.25 mg/kg/injection, schedule: Q01DX009 (ip), vehicle: saline 120 % of control | endpoint: mean survival time, dose: 6.25 mg/kg/injection, schedule: Q04DX003 (ip), vehicle: saline with Tween-80 105 % of control | endpoint: mean survival time, dose: 12.5 mg/kg/injection, schedule: Q01DX009 (ip), vehicle: saline with Tween-80 87 % of control | endpoint: mean survival time, dose: 12.5 mg/kg/injection, schedule: Q01DX009 (ip), vehicle: saline 110 % of control | endpoint: mean survival time, dose: 12.5 mg/kg/injection, schedule: Q04DX003 (ip), vehicle: saline with Tween-80 108 % of control | endpoint: mean survival time, dose: 25.0 mg/kg/injection, schedule: Q04DX003 (ip), vehicle: saline sonified 116 % of control | [7] 101 % of control | endpoint: mean survival time, dose: 37.5 mg/kg/injection, schedule: Q04DX003 (ip), vehicle: saline sonified 86 % of control

Nc1nc(N)c2nc(CNc3ccc(C(=O)NC(CCC(=O)O)C(=O)O)cc3)ccc2n1 (stereo not drawn)
inactive: endpoint: mean survival time, dose: 15.63 micrograms/kg/injection, schedule: Q01DX005 (ip), vehicle: sodium bicarbonate 118 % of control | endpoint: mean survival time, dose: 31.25 micrograms/kg/injection, schedule: Q01DX005 (ip), vehicle: sodium bicarbonate 118 % of control | endpoint: mean survival time, dose: 62.5 micrograms/kg/injection, schedule: Q01DX005 (ip), vehicle: sodium bicarbonate 120 % of control and 110 % of control | endpoint: mean survival time, dose: 125.0 micrograms/kg/injection, schedule: Q01DX005 (ip), vehicle: sodium bicarbonate 113 % of control

Nc1ccccc1C(=O)C/C=C/c1ccccc1
inactive: [8] 95 % of control | [9] 91 % of control | [10] 87 % of control

Cc1ccc2nc(-c3ccc4nc(-c5ccc(N)cc5)sc4c3)sc2c1
inactive: endpoint: mean survival time, dose: 50.0 mg/kg/injection, schedule: Q01DX009 (ip), vehicle: saline with Tween-80 94 % of control | [11] 97 % of control | [12] 94 % of control

ClC1=NC(Cl)(Cl)C(Cl)=C1Cl
inactive: endpoint: mean survival time, dose: 6.25 mg/kg/injection, schedule: Q04DX002 (ip), vehicle: saline 95 % of control | endpoint: mean survival time, dose: 12.5 mg/kg/injection, schedule: Q04DX002 (ip), vehicle: saline 95 % of control | endpoint: mean survival time, dose: 25.0 mg/kg/injection, schedule: Q04DX002 (ip), vehicle: saline 98 % of control

CNC(=O)OCc1c(COC(=O)NC)c(-c2ccc(Cl)c(Cl)c2)n2c1Cc1ccccc1C2
active: endpoint: median survival time, dose: 50.0 mg/kg/injection, schedule: Q01DX009 (ip), vehicle: distilled water + Tween-80 157 % of control | endpoint: median survival time, dose: 100.0 mg/kg/injection, schedule: Q01DX009 (ip), vehicle: distilled water + Tween-80 164 % of control and 173 % of control
inactive: endpoint: median survival time, dose: 12.5 mg/kg/injection, schedule: Q01DX009 (ip), vehicle: distilled water + Tween-80 122 % of control | endpoint: median survival time, dose: 25.0 mg/kg/injection, schedule: Q01DX009 (ip), vehicle: distilled water + Tween-80 122 % of control | endpoint: median survival time, dose: 200.0 mg/kg/injection, schedule: Q01DX009 (ip), vehicle: distilled water + Tween-80 124 % of control

Cc1cc(C)cc(NCCC#N)c1
inactive: [13] 98 % of control | endpoint: mean survival time, dose: 100.0 mg/kg/injection, schedule: Q04DX003 (ip), vehicle: other 106 % of control | endpoint: mean survival time, dose: 200.0 mg/kg/injection, schedule: Q01DX009 (ip), vehicle: other 98 % of control | endpoint: mean survival time, dose: 200.0 mg/kg/injection, schedule: Q04DX003 (ip), vehicle: other 100 % of control | endpoint: mean survival time, dose: 400.0 mg/kg/injection, schedule: Q01DX009 (ip), vehicle: other 98 % of control | endpoint: mean survival time, dose: 400.0 mg/kg/injection, schedule: Q04DX003 (ip), vehicle: other 98 % of control

CCOC(=O)Cc1nnc(N)s1
inactive: [14] 96 % of control | [15] 100 % of control | [16] 102 % of control

COc1cc(C2CNCc3cc(O)c(OC)cc32)ccc1O (stereo not drawn)
inactive: endpoint: mean survival time, dose: 75.0 mg/kg/injection, schedule: Q01DX001 (ip), vehicle: saline 106 % of control | endpoint: mean survival time, dose: 150.0 mg/kg/injection, schedule: Q01DX001 (ip), vehicle: saline 102 % of control

COC1OC(COC(c2ccccc2)(c2ccccc2)c2ccccc2)C(O)C(O)C1O (stereo not drawn)
inactive: [1] 100 % of control | [11] 106 % of control | [3] 97 % of control | [12] 96 % of control | [5] 92 % of control | [17] 98 % of control

Clc1ccc(-c2nnn3ccccc23)cc1
inactive: endpoint: mean survival time, dose: 12.5 mg/kg/injection, schedule: Q01DX001 (ip), vehicle: saline with Tween-80 107 % of control | endpoint: mean survival time, dose: 25.0 mg/kg/injection, schedule: Q01DX001 (ip), vehicle: saline with Tween-80 86 % of control | [1] 97 % of control | [3] 89 % of control

CN(C)C(=O)Oc1cccc(NC(=O)Nc2cccc(OC(=O)N(C)C)c2)c1
inactive: [8] 105 % of control | [9] 98 % of control | [10] 97 % of control

Nc1ccn(C2OC(COC(=O)C34CC5CC(CC(C5)C3)C4)C(O)C2O)c(=O)n1 (stereo not drawn)
active: endpoint: mean survival time, dose: 12.5 mg/kg/injection, schedule: Q01DX009 (ip), vehicle: other 201 % of control | endpoint: mean survival time, dose: 25.0 mg/kg/injection, schedule: Q01DX009 (ip), vehicle: other 282 % of control | endpoint: mean survival time, dose: 50.0 mg/kg/injection, schedule: Q01DX009 (ip), vehicle: other 365 % of control | [13] 253 % of control

Cc1ccc(C(=O)c2nnc(C(=O)c3ccc(C)cc3)nn2)cc1
inactive: [14] 92 % of control | [15] 92 % of control | [16] 86 % of control

O=S(=O)(O)c1ccc(-c2nnc(-c3ccccn3)nc2-c2ccc(S(=O)(=O)O)cc2)cc1
inactive: endpoint: mean survival time, dose: 100.0 mg/kg/injection, schedule: Q01DX009 (ip), vehicle: saline sonified 96 % of control | [2] 97 % of control | endpoint: mean survival time, dose: 200.0 mg/kg/injection, schedule: Q01DX009 (ip), vehicle: saline sonified 98 % of control | [4] 97 % of control | endpoint: mean survival time, dose: 400.0 mg/kg/injection, schedule: Q01DX009 (ip), vehicle: saline sonified 94 % of control | [6] 92 % of control

S=c1[nH]nc2n1NC(c1ccccc1)=NN2
inactive: [11] 104 % of control | [14] 91 % of control | [12] 112 % of control | [15] 96 % of control | [17] 106 % of control | [16] 101 % of control

N#C/C(=C1C=C/C(=N/O)C(Br)=C/1)c1ccccc1
inactive: [11] 108 % of control | [12] 96 % of control | [17] 95 % of control

CCCCCCCCCCCSCCCCCCCCCCC
inactive: [11] 104 % of control | [14] 98 % of control | [12] 103 % of control | [15] 101 % of control | [17] 103 % of control | [16] 98 % of control

CC1(C#N)CCC(=O)N1 (stereo not drawn)
inactive: [1] 95 % of control | [3] 95 % of control | [5] 93 % of control

O=c1cc[nH]c(=S)[nH]1.[Pd]
inactive: endpoint: mean survival time, dose: 3.13 mg/kg/injection, schedule: Q04DX003 (ip), vehicle: distilled water + Tween-80 101 % of control | endpoint: mean survival time, dose: 6.25 mg/kg/injection, schedule: Q04DX003 (ip), vehicle: distilled water + Tween-80 101 % of control | endpoint: mean survival time, dose: 12.5 mg/kg/injection, schedule: Q04DX003 (ip), vehicle: distilled water + Tween-80 96 % of control | endpoint: mean survival time, dose: 25.0 mg/kg/injection, schedule: Q04DX003 (ip), vehicle: distilled water + Tween-80 98 % of control | endpoint: mean survival time, dose: 50.0 mg/kg/injection, schedule: Q04DX003 (ip), vehicle: distilled water + Tween-80 95 % of control | endpoint: mean survival time, dose: 100.0 mg/kg/injection, schedule: Q04DX003 (ip), vehicle: distilled water + Tween-80 90 % of control | endpoint: mean survival time, dose: 200.0 mg/kg/injection, schedule: Q04DX003 (ip), vehicle: distilled water + Tween-80 90 % of control

S=c1[n-]c2ccccc2s1.S=c1[n-]c2ccccc2s1.[Cl][Pt+2][Cl]
inactive: [7] 95 % of control | endpoint: mean survival time, dose: 50.0 mg/kg/injection, schedule: Q04DX003 (ip), vehicle: saline with Tween-80 88 % of control | [14] 93 % of control | [15] 90 % of control
